# Measurements reported in patent publication US20240368173A1, “TRICYCLIC GPR65 MODULATORS” (PATHIOS THERAPEUTICS LIMITED, priority 2021, published 2024).
# Target: human recombinant GPR65 (Homo sapiens, UniProt Q8IYL9)
# Test: Human GPR65 cAMP HTRF antagonist assay
# Format: cell-based
# Conditions: not given
# Summary of the method: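 1321N1 astrocytoma cells stably expressing hrGPR65, with IBMX and EDTA, were preincubated with compound 30 min at room temperature, then acid-activated at assay pH 7.2 (control pH 7.9) for 30 min. cAMP read by HTRF (665/620 nm ratio); IC50 from 4-parameter fit normalised to high/low controls.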
# Sequence of human recombinant GPR65 (Q8IYL9 whole entry): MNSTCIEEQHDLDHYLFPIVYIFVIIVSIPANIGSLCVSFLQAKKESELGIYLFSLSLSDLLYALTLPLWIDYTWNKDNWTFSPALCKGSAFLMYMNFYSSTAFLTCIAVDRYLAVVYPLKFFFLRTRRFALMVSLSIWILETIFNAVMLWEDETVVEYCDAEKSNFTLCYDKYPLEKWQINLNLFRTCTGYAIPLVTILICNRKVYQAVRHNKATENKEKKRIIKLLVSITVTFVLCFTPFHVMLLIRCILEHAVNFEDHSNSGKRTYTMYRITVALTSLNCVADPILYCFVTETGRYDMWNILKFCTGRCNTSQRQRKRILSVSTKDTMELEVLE
row,Structure (SMILES),IC50 [nM]
1,"CC(C)COc1ccc(-c2cc(F)c(NC(=O)N3[C@H]4CC[C@@H]3c3c[nH]c(=O)cc3C4)cc2Cl)cn1 [Compound 335, (6S,9R)-N-(5-Chloro-2-fluoro-4-(6-isobutoxypyridin-3-yl)phenyl)-3-oxo-3,5,6,7,8,9-hexahydro-2H-6,9-epiminocyclohepta[c]pyridine-10-carboxamide]",< 500
2,"O=C(Nc1cc(Cl)c(C(F)(F)F)cc1F)N1C2CCC1C(F)c1c2ccnc1F (mixture of isomers) [Compound 226, (±, 9-endo)-N-(5-chloro-2-fluoro-4-(trifluoromethyl)phenyl)-1,9-difluoro-6,7,8,9-tetrahydro-5H-5,8-epiminocyclohepta[c]pyridine-10-carboxamide]",< 500
3,"O=C(Nc1cc(Cl)c(-c2cnc3nonc3c2)cc1F)N1[C@H]2CC[C@@H]1c1c[nH]c(=O)cc1C2 [Compound 189, (6S,9R)-N-(4-([1,2,5]oxadiazolo[3,4-b]pyridin-6-yl)-5-chloro-2-fluorophenyl)-3-oxo-3,5,6,7,8,9-hexahydro-2H-6,9-epiminocyclohepta[c]pyridine-10-carboxamide]",< 500
4,"O=C(Nc1ccc(Br)c(Cl)c1)N1C2CCC1c1n[nH]c(=O)cc1C2 (racemic) [Compound 4, (±)-N-(4-Bromo-3-chlorophenyl)-3-oxo-3,5,6,7,8,9-hexahydro-2H-6,9-epiminocyclohepta[c]pyridazine-10-carboxamide]",< 500
5,"O=C(Nc1cc(-c2ccc3nonc3c2)c(C(F)(F)F)cc1F)N1[C@H]2CC[C@@H]1c1n[nH]c(=O)cc1C2 [Compound 254, (6S,9R)-N-(5-(Benzo[c][1,2,5]oxadiazol-5-yl)-2-fluoro-4-(trifluoromethyl)phenyl)-3-oxo-3,5,6,7,8,9-hexahydro-2H-6,9-epiminocyclohepta[c]pyridazine-10-carboxamide]",< 500
6,"O=C(Nc1cc(Cl)c(F)cc1Oc1ccc2nonc2c1)N1[C@H]2CC[C@@H]1c1n[nH]c(=O)cc1C2 [Compound 224, (6S,9R)-N-(2-(Benzo[c][1,2,5]oxadiazol-5-yloxy)-5-chloro-4-fluorophenyl)-3-oxo-3,5,6,7,8,9-hexahydro-2H-6,9-epiminocyclohepta[c]pyridazine-10-carboxamide]",500 to 5000
7,"CCOc1ccc(-c2cc(F)c(NC(=O)N3[C@H]4CC[C@@H]3c3c[nH]c(=O)cc3C4)cc2Cl)cn1 [Compound 272, (6S,9R)-N-(5-Chloro-4-(6-ethoxypyridin-3-yl)-2-fluorophenyl)-3-oxo-3,5,6,7,8,9-hexahydro-2H-6,9-epiminocyclohepta[c]pyridine-10-carboxamide]",< 500
8,"O=C(Nc1cc(Br)c(Cl)cc1F)N1C2CCC1c1n[nH]c(=O)cc1C2 (racemic) [Compound 7, (±)-N-(5-Bromo-4-chloro-2-fluorophenyl)-3-oxo-3,5,6,7,8,9-hexahydro-2H-6,9-epiminocyclohepta[c]pyridazine-10-carboxamide]",< 500
9,"O=C(Nc1cc(F)c(-c2ccc(F)nc2)cc1F)N1[C@H]2CC[C@@H]1c1c[nH]c(=O)cc1C2 [Compound 243, (6S,9R)-N-(2,5-Difluoro-4-(6-fluoropyridin-3-yl)phenyl)-3-oxo-3,5,6,7,8,9-hexahydro-2H-6,9-epiminocyclohepta[c]pyridine-10-carboxamide]",< 500
10,"O=C(Nc1cc(Cl)c(-c2ccc(OC(F)F)nc2)cc1F)N1[C@H]2CC[C@@H]1c1c[nH]c(=O)cc1C2 [Compound 325, (6S,9R)-N-(5-Chloro-4-(6-(difluoromethoxy)pyridin-3-yl)-2-fluorophenyl)-3-oxo-3,5,6,7,8,9-hexahydro-2H-6,9-epiminocyclohepta[c]pyridine-10-carboxamide]",< 500
11,"Cc1nnc(-c2cc(F)c(NC(=O)N3[C@H]4CC[C@@H]3c3ccnc(F)c3C4)cc2Cl)s1 [Compound 64, (5R,8S)-N-(5-Chloro-2-fluoro-4-(5-methyl-1,3,4-thiadiazol-2-yl)phenyl)-1-fluoro-6,7,8,9-tetrahydro-5H-5,8-epiminocyclohepta[c]pyridine-10-carboxamide]",< 500
12,"N#Cc1cc(NC(=O)N2[C@H]3CC[C@@H]2c2n[nH]c(=O)cc2C3)c(F)cc1Cl [Compound 112, (6S,9R)-N-(4-Chloro-5-cyano-2-fluorophenyl)-3-oxo-3,5,6,7,8,9-hexahydro-2H-6,9-epiminocyclohepta[c]pyridazine-10-carboxamide]",< 500
13,"O=C(Nc1cc(Cl)c(-c2cc(F)cnc2F)cc1F)N1[C@H]2CC[C@@H]1c1n[nH]c(=O)cc1C2 [Compound 182, (6S,9R)-N-(5-Chloro-4-(2,5-difluoropyridin-3-yl)-2-fluorophenyl)-3-oxo-3,5,6,7,8,9-hexahydro-2H-6,9-epiminocyclohepta[c]pyridazine-10-carboxamide]",< 500
14,"O=C(Nc1cc(Cl)c(C(F)(F)F)cc1F)N1[C@@H]2CC[C@H]1C(F)(F)c1c2ccnc1F [Compound 227, (5R,8S)-N-(5-Chloro-2-fluoro-4-(trifluoromethyl)phenyl)-1,9,9-trifluoro-6,7,8,9-tetrahydro-5H-5,8-epiminocyclohepta[c]pyridine-10-carboxamide]",< 500
15,"O=C(Nc1cc(Cl)c(-c2ccc(N3CCC3)nc2)cc1F)N1[C@H]2CC[C@@H]1c1n[nH]c(=O)cc1C2 [Compound 341, (6S,9R)-N-(4-(6-(Azetidin-1-yl)pyridin-3-yl)-5-chloro-2-fluorophenyl)-3-oxo-3,5,6,7,8,9-hexahydro-2H-6,9-epiminocyclohepta[c]pyridazine-10-carboxamide]",< 500
16,"O=C(Nc1cc(Br)c(Cl)cc1F)N1C2CCC1c1c[nH]c(=O)nc1C2 (racemic) [Compound 15, (±)—N-(5-Bromo-4-chloro-2-fluorophenyl)-2-oxo-3,5,6,7,8,9-hexahydro-2H-5,8-epiminocyclohepta[d]pyrimidine-10-carboxamide]",< 500

# Same assay, conditions: 1321N1-hrGPR65 cells, cAMP HTRF, assay pH 7.2; read-out: hGPR65 IC50 (Activity of selected compounds according to the invention)
row,Structure (SMILES),IC50 [nM]
1,"COc1cnccc1-c1cc(F)c(NC(=O)N2[C@H]3CC[C@@H]2c2n[nH]c(=O)cc2C3)cc1Cl [Compound 299, (6S,9R)-N-(5-Chloro-2-fluoro-4-(3-methoxypyridin-4-yl)phenyl)-3-oxo-3,5,6,7,8,9-hexahydro-2H-6,9-epiminocyclohepta[c]pyridazine-10-carboxamide]",500 to 5000
2,"O=C(Nc1cc(Cl)c(C(F)(F)F)cc1F)N1C2CCC1[C@@H](O)c1c2ccnc1F (mixture of isomers) [Compound 156, (±)-(9S)—N-(5-chloro-2-fluoro-4-(trifluoromethyl)phenyl)-1-fluoro-9-hydroxy-6,7,8,9-tetrahydro-5H-5,8-epiminocyclohepta[c]pyridine-10-carboxamide]",500 to 5000
3,"O=C(Nc1ccc(OC2CCC2)c(Cl)c1)N1C2CCC1c1n[nH]c(=O)cc1C2 (racemic) [Compound 14, (±)-N-(3-Chloro-4-cyclobutoxyphenyl)-3-oxo-3,5,6,7,8,9-hexahydro-2H-6,9-epiminocyclohepta[c]pyridazine-10-carboxamide]",500 to 5000
4,"O=C(Nc1cc(Cl)c(Cl)cc1F)N1[C@H]2CC[C@@H]1c1c(C#CCO)cnc(F)c1C2 [Compound 107, (5R,8S)—N-(4,5-Dichloro-2-fluorophenyl)-1-fluoro-4-(3-hydroxyprop-1-yn-1-yl)-6,7,8,9-tetrahydro-5H-5,8-epiminocyclohepta[c]pyridine-10-carboxamide]",500 to 5000
